Measured values published in patent publication US4731375A, “Coumarin derivatives and antiallergic agents containing the same” (Kaken Pharmaceutical Co., Ltd., priority 1984, dated 1988).

How the values were obtained:
[1] = system: passive cutaneous anaphylaxis by homocytotropic antibody (HTA); test: Passive Cutaneous Anaphylaxis (PCA) test in rat (Test Example 1); type: in vivo, rat (Wistar); conditions: 0.5 h, 72 hour PCA, intravenous just before antigen, sacrificed 30 minutes after antigen challenge, read-out: ID50 (fifty % inhibitory dose for the leaked amount of the pigment)
Protocol: (§1) Fifty % inhibitory dose (ID50) in Passive Cutaneous Anaphylaxis (PCA) test in rat (Test Example 1) and Minimal Lethal Dose (MLD) in intraperitoneal acute toxicity test in mouse (Test Example 2) were determined for the typical compounds of the present invention as follows:
The antiallergic activities of the chromene derivatives of the present invention were tested in passive cutaneous anaphylaxis (hereinafter referred to as "PCA") by homocytotropic antibody (hereinafter referred to as "HTA").
DNP-As(2,4-dinitro phenyl-coupled Ascaris extract) was prepared according to the method by Strejan et al. (J. Immunol. Vol. 98, P 893, (1967)) and by Eisen (J. Amer. Chem. Soc. Vol. 75, P 4593, (1953)) to be used as antigen. Antiserum containing HTA was prepared by the method according to Tada and Okumura (J. Immunol. Vol. 106, P 1002, (1972)) as follows: i.e. spleen was taken out from Wistar female rat weighing 180 to 200 g and several days after 1 mg of DNP-As and 1×10^10 of Bordetella pertussis vaccine were injected into four footpads of the rat to induce senitization. After five days, again 0.5 mg of DNP-As was solely injected into the dorsal muscles. Eight days after priming, blood was taken by paracentesis of aorta under anesthetic condition with ether and the obtained antiserum was stored at -80° C.
Titer of the stored antiserum was determined by 72 hour PCA method in rat as described in the following item (2). The maximal dilution of the antiserum which can give a spot with a diameter of around 5 mm was usually 500 times.
The diluted antiserum (×30) was injected 0.05 ml/site intradermally into the shaved back of normal Wistar rat weighing 140 to 160 g. After 72 hours, 1 ml of physiological saline containing 2 mg of DNP-As and 2.5 mg of Evans blue was injected intravenously.
Test compound was dissolved in 0.5% aqueous solution of KHCO3, which was administered intravenously in an amount of 2 ml/kg just before the administration of the antigen. The animal was sacrificed 30 minutes after antigen challenge and the cutis was peeled off. The intensity of PCA was evaluated for the measurment of the leaked amount of the pigment. The leaked pigment was extracted according to the method by Harada et al. (Jpn. J. Allergol., Vol. 15, P 1, (1966)) and the leaked amount was measured by spectrophotometry. Fifty % inhibitory dose for the leaked amount of the pigment was regarded as ID50 value of the test compound.

[2] = system: mouse; test: intraperitoneal acute toxicity test in mouse (Test Example 2); type: in vivo, mouse (Slc: ddy male); conditions: 14 days observation, five mice per group
Protocol: as §1
The intraperitoneal actute toxicity test was carried out using mouse for the chromene derivatives of the present invention. Normal Slc: ddy male 4 weeks mice were preliminarily breeded for a week at a breeding room and those weighing 25 to 27 g were subjected to the test. The test compounds were used by suspending in 0.5% aqueous solution of sodium carboxymethylcellulose. Ten ml/kg was administered intraperitoneally through the right abdomen of the animal using the prescribed needle (five mice per group). The lethal dose was presumed by the observation during 14 days after administration.

[3] = system: experimental asthma model of animals; test: experimental asthma model of animals; type: in vivo

Structure (SMILES)	ED50 [1] [mg/kg]	MLD (Minimal Lethal Dose) [2] [mg/kg]	inhibitory effect in experimental asthma model [3]
O=C(O)CCCOc1ccc2oc(=O)c(-c3nnn[nH]3)cc2c1 [Compound C, 4-[2-oxo-3-(1H-tetrazole-5-yl)-2H-chromene-6-yloxy]butyric acid]	0.1	> 1500	
O=C(O)CCCOc1cccc2cc(-c3nnn[nH]3)c(=O)oc12 [Compound B, 4-[2-oxo-3-(1H-tetrazole-5-yl)-2H-chromene-8 yloxy]butyric acid]	0.1	> 1600	inhibitory effect in high degree
O=C(O)COc1cccc2cc(-c3nnn[nH]3)c(=O)oc12 [Compound A, [2-oxo-3-(1H-tetrazole-5-yl)-2H-chromene-8-yloxy]acetic acid]	0.5	> 1000	
O=C(O)CCCCCOc1cccc2oc(=O)c(-c3nnn[nH]3)cc12 [Compound G, 6-[2-oxo-3-(1H-tetrazole-5-yl)-2H-chromene-5-yloxy]hexanoic acid]	0.2	> 1500	
O=C(O)CCCCCOc1ccc2oc(=O)c(-c3nnn[nH]3)cc2c1 [Compound F, 6-[2-oxo-3-(1H-tetrazole-5-yl)-2H-chromene-6-yloxy]hexanoic acid]	0.16	> 1600	
O=C(O)CCCCCOc1ccc2cc(-c3nnn[nH]3)c(=O)oc2c1 [Compound E, 6-[2-oxo-3-(1H-tetrazole-5-yl)-2H-chromene-7-yloxy]hexanoic acid]	0.2	> 1500	
O=C(O)CCCCCOc1cccc2cc(-c3nnn[nH]3)c(=O)oc12 [Compound D, 6-[2-oxo-3-(1H-tetrazole-5-yl)-2H-chromene-8-yloxy]hexanoic acid]	0.16	> 1600	
